Earlier results in patent publication US8491930B2, “Pharmaceutical formulation containing ibuprofen and codeine” (Farmasierra Manufacturing, S.L., priority 2008, dated 2013).

COc1ccc2c3c1OC1C(O)C=C[C@H]4[C@@H](C2)N(C)CC[C@]314 (stereo partly shown) [Codeine phosphate, 7,8-didehydro-4,5-epoxy-3-methoxy-17-methyl-morphinan-6-ol]
Solubility in water: soluble in water
